Measured values taken from ChEMBL document CHEMBL2021858, “The effect of vindoline C-16 substituents on the biomimetic coupling reaction: synthesis and cytotoxicity evaluation of the corresponding vinorelbine analogues” (Bioorg Med Chem Lett, 2012).

Columns and labels:
HeLa = assay: Cytotoxicity against human HeLa cells by MTT assay; assay type: functional, cell-based
A549 = assay: Cytotoxicity against human A549 cells by MTT assay; assay type: functional, cell-based

| SMILES | IC50 (HeLa) | IC50 (A549) |
| --- | --- | --- |
| CCC1=C[C@@H]2CN(C1)Cc1c([nH]c3ccccc13)[C@@](C(=O)OC)(c1cc3c(cc1OCCOC(C)=O)N(C)[C@H]1[C@@](O)(COC(C)=O)[C@H](OC(C)=O)[C@]4(CC)C=CCN5CC[C@]31[C@@H]54)C2 | 77 nM | 83 nM |
| CCC1=C[C@@H]2CN(C1)Cc1c([nH]c3ccccc13)[C@@](C(=O)OC)(c1cc3c(cc1OC)N(C)[C@H]1[C@@](O)(COC(C)=O)[C@H](OC(C)=O)[C@]4(CC)C=CCN5CC[C@]31[C@@H]54)C2 | 5 nM | 7 nM |
| CCC1=C[C@@H]2CN(C1)Cc1c([nH]c3ccccc13)[C@@](C(=O)OC)(c1cc3c(cc1OC(C)C)N(C)[C@H]1[C@@](O)(COC(C)=O)[C@H](OC(C)=O)[C@]4(CC)C=CCN5CC[C@]31[C@@H]54)C2 | 209 nM | 236 nM |
| CCC1=C[C@@H]2CN(C1)Cc1c([nH]c3ccccc13)[C@@](C(=O)OC)(c1cc3c(cc1OC(C)=O)N(C)[C@H]1[C@@](O)(COC(C)=O)[C@H](OC(C)=O)[C@]4(CC)C=CCN5CC[C@]31[C@@H]54)C2 | 49 nM | 56 nM |
| CCCOc1cc2c(cc1[C@@]1(C(=O)OC)C[C@@H]3C=C(CC)CN(Cc4c1[nH]c1ccccc41)C3)[C@@]13CCN4CC=C[C@@](CC)([C@@H](OC(C)=O)[C@](O)(COC(C)=O)[C@@H]1N2C)[C@H]43 | 45 nM | 51 nM |
| CCC1=C[C@@H]2CN(C1)Cc1c([nH]c3ccccc13)[C@@](C(=O)OC)(c1cc3c(cc1OC)N(C)[C@H]1[C@@](O)(C(=O)OC)[C@H](OC(C)=O)[C@]4(CC)C=CCN5CC[C@]31[C@@H]54)C2 [VINORELBINE] | 9 nM | 10 nM |
| CCCCOc1cc2c(cc1[C@@]1(C(=O)OC)C[C@@H]3C=C(CC)CN(Cc4c1[nH]c1ccccc41)C3)[C@@]13CCN4CC=C[C@@](CC)([C@@H](OC(C)=O)[C@](O)(COC(C)=O)[C@@H]1N2C)[C@H]43 | 89 nM | 94 nM |
| CCCCCCCOc1cc2c(cc1[C@@]1(C(=O)OC)C[C@@H]3C=C(CC)CN(Cc4c1[nH]c1ccccc41)C3)[C@@]13CCN4CC=C[C@@](CC)([C@@H](OC(C)=O)[C@](O)(COC(C)=O)[C@@H]1N2C)[C@H]43 | 317 nM | 331 nM |
| CCOc1cc2c(cc1[C@@]1(C(=O)OC)C[C@@H]3C=C(CC)CN(Cc4c1[nH]c1ccccc41)C3)[C@@]13CCN4CC=C[C@@](CC)([C@@H](OC(C)=O)[C@](O)(COC(C)=O)[C@@H]1N2C)[C@H]43 | 11 nM | 13 nM |
